Experimental data published in ChEMBL document CHEMBL1144996 (J Med Chem, 2003).

Target: Carbonic anhydrase 1 (Homo sapiens, UniProt P00915)
Sequence (P00915 whole entry): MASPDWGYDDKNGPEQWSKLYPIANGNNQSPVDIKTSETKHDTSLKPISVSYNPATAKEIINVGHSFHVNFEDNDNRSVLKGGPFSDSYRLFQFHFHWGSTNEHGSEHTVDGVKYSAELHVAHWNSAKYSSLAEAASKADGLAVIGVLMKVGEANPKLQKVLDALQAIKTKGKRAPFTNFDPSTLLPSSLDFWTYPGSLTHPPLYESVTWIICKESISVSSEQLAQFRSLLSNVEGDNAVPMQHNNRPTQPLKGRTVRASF

Structure (SMILES)	Ki [µM]
NS(=O)(=O)OCCOc1ccc(-n2ccnc2)cc1	0.028
NS(=O)(=O)Oc1ccc(Cl)cc1	0.0046
NS(=O)(=O)Oc1ccc(Br)cc1	0.0073
NS(=O)(=O)Oc1c(Cl)c(Cl)c(Cl)c(Cl)c1Cl [SULFAMIC ACID PENTACHLOROPHENYL ESTER]	0.432
NS(=O)(=O)Oc1ccc(-c2ccccc2)cc1	0.113
C[C@]12CC[C@@H]3c4ccc(O)cc4CC[C@H]3[C@@H]1CC[C@@H]2OS(N)(=O)=O	0.015
NS(=O)(=O)Oc1c(Cl)cc(Cl)cc1Cl	0.454
N#Cc1ccc(OS(N)(=O)=O)cc1	0.48
NS(=O)(=O)Oc1ccc(I)cc1	0.0095
CC(C)(C)c1ccc(OS(N)(=O)=O)cc1	0.043
C[C@]12CC[C@@H]3c4ccc(OS(N)(=O)=O)cc4CC[C@H]3[C@@H]1CCC2=O [EMATE]	0.037
NS(=O)(=O)Oc1ccccc1 [PHENYLSULFAMATE]	0.0021
Cc1ccc(OS(N)(=O)=O)cc1	0.0038
C[C@]12CCC(OS(N)(=O)=O)CC1=CCC1C2CC[C@]2(C)C(=O)CCC12 (some centres not stated)	0.031
C[C@]12CC[C@@H]3c4ccc(OS(N)(=O)=O)cc4CC[C@H]3[C@@H]1CC[C@@H]2OS(N)(=O)=O	0.006
CC(=O)Nc1ccc(OS(N)(=O)=O)cc1	0.037
CC1(C)O[C@@H]2[C@H](O1)[C@H]1OC(C)(C)OC1O[C@@H]2COS(N)(=O)=O (some centres not stated)	0.315
COc1ccc(OS(N)(=O)=O)cc1	0.033
NS(=O)(=O)Oc1ccc(Oc2ccccc2)cc1	0.115
CC1(C)OCC(C2OC3OC(C)(C)OC3[C@H]2OS(N)(=O)=O)O1 (some centres not stated)	0.278
NS(=O)(=O)Oc1ccc([N+](=O)[O-])cc1	0.04

Target: Carbonic anhydrase 2 (Homo sapiens, UniProt P00918)

Structure (SMILES)	Ki [µM]
NS(=O)(=O)OCCOc1ccc(-n2ccnc2)cc1	0.023
NS(=O)(=O)Oc1c(Cl)c(Cl)c(Cl)c(Cl)c1Cl [SULFAMIC ACID PENTACHLOROPHENYL ESTER]	0.125
NS(=O)(=O)Oc1ccc(-c2ccccc2)cc1	0.095
C[C@]12CC[C@@H]3c4ccc(O)cc4CC[C@H]3[C@@H]1CC[C@@H]2OS(N)(=O)=O	0.013
NS(=O)(=O)Oc1c(Cl)cc(Cl)cc1Cl	0.138
N#Cc1ccc(OS(N)(=O)=O)cc1	0.149
NS(=O)(=O)Oc1ccc(I)cc1	0.0038
CC(C)(C)c1ccc(OS(N)(=O)=O)cc1	0.0029
Cc1ccc(OS(N)(=O)=O)cc1	0.0019
C[C@]12CCC(OS(N)(=O)=O)CC1=CCC1C2CC[C@]2(C)C(=O)CCC12 (some centres not stated)	0.027
C[C@]12CC[C@@H]3c4ccc(OS(N)(=O)=O)cc4CC[C@H]3[C@@H]1CC[C@@H]2OS(N)(=O)=O	0.005
CC(=O)Nc1ccc(OS(N)(=O)=O)cc1	0.018
CC1(C)O[C@@H]2[C@H](O1)[C@H]1OC(C)(C)OC1O[C@@H]2COS(N)(=O)=O (some centres not stated)	0.029
COc1ccc(OS(N)(=O)=O)cc1	0.0016
NS(=O)(=O)Oc1ccc(Oc2ccccc2)cc1	0.098
CC1(C)OCC(C2OC3OC(C)(C)OC3[C@H]2OS(N)(=O)=O)O1 (some centres not stated)	0.015
NS(=O)(=O)Oc1ccc([N+](=O)[O-])cc1	0.0015

Target: Carbonic anhydrase 9 (Homo sapiens, UniProt Q16790)

Structure (SMILES)	Ki [µM]
NS(=O)(=O)OCCOc1ccc(-n2ccnc2)cc1	0.026
NS(=O)(=O)Oc1ccc(Cl)cc1	0.018
NS(=O)(=O)Oc1ccc(Br)cc1	0.019
NS(=O)(=O)Oc1c(Cl)c(Cl)c(Cl)c(Cl)c1Cl [SULFAMIC ACID PENTACHLOROPHENYL ESTER]	0.039
NS(=O)(=O)Oc1ccc(-c2ccccc2)cc1	0.05
C[C@]12CC[C@@H]3c4ccc(O)cc4CC[C@H]3[C@@H]1CC[C@@H]2OS(N)(=O)=O	0.032
NS(=O)(=O)Oc1c(Cl)cc(Cl)cc1Cl	0.037
N#Cc1ccc(OS(N)(=O)=O)cc1	0.041
NS(=O)(=O)Oc1ccc(I)cc1	0.023
NS(=O)(=O)Oc1ccccc1 [PHENYLSULFAMATE]	0.063
Cc1ccc(OS(N)(=O)=O)cc1	0.059
C[C@]12CCC(OS(N)(=O)=O)CC1=CCC1C2CC[C@]2(C)C(=O)CCC12 (some centres not stated)	0.044
C[C@]12CC[C@@H]3c4ccc(OS(N)(=O)=O)cc4CC[C@H]3[C@@H]1CC[C@@H]2OS(N)(=O)=O	0.058
CC(=O)Nc1ccc(OS(N)(=O)=O)cc1	0.045
CC1(C)O[C@@H]2[C@H](O1)[C@H]1OC(C)(C)OC1O[C@@H]2COS(N)(=O)=O (some centres not stated)	0.032
COc1ccc(OS(N)(=O)=O)cc1	0.034
NS(=O)(=O)Oc1ccc(Oc2ccccc2)cc1	0.051
CC1(C)OCC(C2OC3OC(C)(C)OC3[C@H]2OS(N)(=O)=O)O1 (some centres not stated)	0.039
NS(=O)(=O)Oc1ccc([N+](=O)[O-])cc1	0.036
